The values that follow come from patent publication US9890147B2 (BAYER PHARMA AKTIENGESELLSCHAFT, priority 2012, dated 2018).

One assay concerns the target T1, BRD4 (BD1) (Homo sapiens, UniProt O60885).
T1 construct: with relatively long constructs also being possible, preferably amino acids 44-168; made in house; host or cells: E. coli
Description: Binding assay BRD4/acetylated peptide H4 (TR-FRET protein-protein interaction assay). A digest of the protocol: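 Displacement of biotin-Ac-H4 peptide from His6-tagged BRD4(BD1), final usually 10 nM, read as Eu-streptavidin to anti-His-XL665 TR-FRET (665/620 nm). Compounds tested at 11 doses up to 20 μM in duplicate, pH 7.5 HEPES, 22 °C then 4 °C incubation; IC50 by 4-parameter regression.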
Background: Time-resolved FRET reads energy transfer from a long-lived donor to a nearby acceptor.

The test system of another assay is MOLM-13 cells. The experiment in a line: Cell proliferation assay (alamarBlue), MOLM-13. The format is cell-based. Particulars: Homo sapiens, 96 hours incubation, inhibition of cell proliferation. In outline: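 IC50 = concentration giving 50% growth inhibition relative to buffer-treated cells, after subtracting baseline fluorescence taken before dosing. Compound applied at 1E-5 to 1E-8 M for 96 h at 37 °C in RPMI1640 with 10% FCS; alamarBlue signal at 530/590 nm.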
For orientation: The colour change of resazurin is a common sign of viable cells or microbes.

SMILES strings stand for the structures. pIC50: −log10 of the molar value.

For the compound `CCC1Cc2cc(OC)c(OC)cc2C(c2ccc(-c3cn(C)nn3)cc2)=NN1C(=O)NC` (racemic) [Example 222, (±)-4-ethyl-7,8-dimethoxy-N-methyl-1-[4-(1-methyl-1H-1,2,3-triazol-4-yl)phenyl]-4,5-dihydro-3H-2,3-benzodiazepine-3-carboxamide], the pIC50 on BRD4 (BD1) was 6.02; in the assay with MOLM-13 cells, 5.67.
Regarding `CNC(=O)N1N=C(c2ccc(-c3c(C)noc3C)cc2)c2cc(Cl)c(OC)cc2C[C@H]1C` [Example 157.2, (4R)-8-chloro-1-[4-(3,5-dimethylisoxazol-4-yl)phenyl]-7-methoxy-N,4-dimethyl-4,5-dihydro-3H-2,3-benzodiazepine-3-carboxamide], the negative logarithm of the IC50 (pIC50) at BRD4 (BD1) was 6.33; in the assay with MOLM-13 cells, 5.66.
On to `CNC(=O)N1N=C(c2ccc(-c3cnccc3F)cc2)c2cc(OC)c(OC)cc2CC1C` (racemic) [Example 123, (±)-1-[4-(4-fluoropyridin-3-yl)phenyl]-7,8-dimethoxy-N,4-dimethyl-4,5-dihydro-3H-2,3-benzodiazepine-3-carboxamide], for which the negative-log IC50 (pIC50) on BRD4 (BD1) was 7.30; with MOLM-13 cells, 6.20.
For `CNC(=O)N1N=C(c2ccc(-c3cccc(C(=O)N4CCCCC4)c3)cc2)c2cc(OC)c(OC)cc2CC1C` (racemic) [Example 97, (±)-7,8-dimethoxy-N,4-dimethyl-1-[3′-(piperidin-1-ylcarbonyl)biphenyl-4-yl]-4,5-dihydro-3H-2,3-benzodiazepine-3-carboxamide], the pIC50 at BRD4 (BD1) is 7.30; in the assay with MOLM-13 cells, 6.35.
The like results for `CNC(=O)N1N=C(c2cccc(-c3ccnn3C)c2)c2cc(OC)c(OC)cc2CC1C` (racemic) [Example 55, (±)-7,8-dimethoxy-N,4-dimethyl-1-[3-(1-methyl-1H-pyrazol-5-yl)phenyl]-4,5-dihydro-3H-2,3-benzodiazepine-3-carboxamide] were, in that order, 6.92 and 6.05.
As for `CNC(=O)N1N=C(c2ccc(-c3ccccc3OC)cc2)c2cc(OC)c(OC)cc2CC1C` (racemic) [Example 90, (±)-7,8-dimethoxy-1-(2′-methoxybiphenyl-4-yl)-N,4-40dimethyl-4,5-dihydro-3H-2,3-benzodiazepine-3-carboxamide], the values for the pIC50 on BRD4 (BD1) and in the assay on MOLM-13 cells were 7.15 and 6.34, respectively.
On to `CNC(=O)N1N=C(c2ccc(-c3cncc(C)c3)cc2)c2cc(OC)c(OC)cc2CC1C` (racemic) [Example 81, (±)-7,8-dimethoxy-N,4-dimethyl-1-[4-(5-methylpyridin-3-yl)phenyl]-4,5-dihydro-3H-2,3-benzodiazepine-3-carboxamide], for which the negative-log IC50 (pIC50) on BRD4 (BD1) is 7.30; in the assay on MOLM-13 cells, 6.52.
The like results for `CNC(=O)N1N=C(c2ccc(-c3cccc(C(N)=O)c3)cc2)c2cc(OC)c(OC)cc2CC1C` (racemic) [Example 77, (±)-1-(3′-carbamoylbiphenyl-4-yl)-7,8-dimethoxy-N,4-dimethyl-4,5-dihydro-3H-2,3-benzodiazepine-3-carboxamide] were, in that order, 7.40 and 6.31.
As to `CNC(=O)N1N=C(c2ccc(N3CCN(C)C(=O)C3)cc2)c2cc(OC)c(OC)cc2CC1C` (racemic) [Example 138, (±)-7,8-dimethoxy-N,4-dimethyl-1-[4-(4-methyl-3-oxopiperazin-1-yl)phenyl]-4,5-dihydro-3H-2,3-benzodiazepine-3-carboxamide], the pIC50 was 7.52 at BRD4 (BD1) and 6.55 with MOLM-13 cells.
Regarding `CNC(=O)N1N=C(c2ccc(-c3ccc(O)nc3)cc2)c2cc(OC)c(OC)cc2CC1C` (racemic) [Example 49, (±)-1-[4-(6-hydroxypyridin-3-yl)phenyl]-7,8-dimethoxy-N,4-dimethyl-4,5-dihydro-3H-2,3-benzodiazepine-3-carboxamide], the negative-log IC50 (pIC50) on BRD4 (BD1) is 7.40; in the assay on MOLM-13 cells, 6.38.
Consider `CNC(=O)N1N=C(c2ccc(N3CCOCC3=O)cc2)c2cc(OC)ccc2C[C@@H]1C` [Example 177, (4S)-8-Methoxy-N,4-dimethyl-1-[4-(3-oxomorpholin-4-yl)phenyl]-4,5-dihydro-3H-2,3-benzodiazepine-3-carboxamide], for which the figures for the pIC50 at BRD4 (BD1) and in the assay with MOLM-13 cells were 7.15 and 6.31, respectively.
On to `CNC(=O)N1N=C(c2cccc(N3CCOCC3)c2)c2cc(OC)c(OC)cc2CC1C` (racemic) [Example 140, (±)-7,8-dimethoxy-N,4-dimethyl-1-[3-(morpholin-4-yl)phenyl]-4,5-dihydro-3H-2,3-benzodiazepine-3-carboxamide], for which the negative-log IC50 (pIC50) at BRD4 (BD1) is 7.22; in the assay with MOLM-13 cells, 6.33.
On to `CNC(=O)N1N=C(c2ccc(F)c(-c3c(C)noc3C)c2)c2cc(OC)c(OC)cc2CC1C` (racemic) [Example 58, (±)-1-[3-(3,5-dimethylisoxazol-4-yl)-4-fluoroophenyl]-7,8-dimethoxy-N,4-dimethyl-4,5-dihydro-3H-2,3-benzodiazepine-3-carboxamide], for which the pIC50 on BRD4 (BD1) was 6.60; with MOLM-13 cells, 6.00.
Consider `CNC(=O)N1N=C(c2ccc(-c3c(C)noc3C)cc2)c2cc(OC(F)F)c(OC(F)F)cc2CC1C` (racemic) [Example 160, (±)-7,8-Bis(difluoromethoxy)-1-[4-(3,5-dimethylisoxazol-4-yl)phenyl]-N,4-dimethyl-4,5-dihydro-3H-2,3-benzodiazepine-3-carboxamide], for which the negative-log IC50 (pIC50) at BRD4 (BD1) was 6.59; with MOLM-13 cells, 6.40.
Turning to `CC[C@H]1Cc2cc(OC)c(OC)cc2C(c2ccc(N3CCN(C)CC3)cc2)=NN1C(=O)NC` [Example 201.1, (4S)-4-ethyl-7,8-dimethoxy-N-methyl-1-[4-(4-methylpiperazin-1-yl)phenyl]-4,5-dihydro-3H-2,3-benzodiazepine-3-carboxamide], the negative logarithm of the IC50 (pIC50) on BRD4 (BD1) is 6.15; in the assay on MOLM-13 cells it was 5.70.
Turning to `CNC(=O)N1N=C(c2ccc(-c3ccccc3C(F)(F)F)cc2)c2cc(OC)c(OC)cc2CC1C` (racemic) [Example 91, (±)-7,8-dimethoxy-N,4-dimethyl-1-[2′-(trifluoromethyl)biphenyl-4-yl]-4,5-dihydro-3H-2,3-benzodiazepine-3-carboxamide], the negative logarithm of the IC50 (pIC50) on BRD4 (BD1) is 6.47; in the assay with MOLM-13 cells it was 6.26.
`CNC(=O)N1N=C(c2ccc(-c3c(C)noc3C)cc2)c2cc(N3CCOCC3)ccc2C[C@H]1C` [Example 176.1, (4R)-1-[4-(3,5-Dimethylisoxazol-4-yl)phenyl]-N,4-dimethyl-8-(morpholin-4-yl)-4,5-dihydro-3H-2,3-benzodiazepine-3-carboxamide]: the pIC50 at BRD4 (BD1) is 6.14; with MOLM-13 cells it was 5.66.
Consider `CNC(=O)N1N=C(c2ccc(-c3ccc(C(=O)N4CCOCC4)cc3)cc2)c2cc(OC)c(OC)cc2CC1C` (racemic) [Example 79, (±)-7,8-dimethoxy-N,4-dimethyl-1-[4′-(morpholin-4-ylcarbonyl)biphenyl-4-yl]-4,5-dihydro-3H-2,3-benzodiazepine-3-carboxamide], for which the pIC50 was 7.30 on BRD4 (BD1) and 6.34 in the assay with MOLM-13 cells.
`CNC(=O)N1N=C(c2ccc(-c3ccccc3)cc2)c2cc(OC)c(OC)cc2CC1C` (racemic) [Example 60, (±)-1-(biphenyl-4-yl)-7,8-dimethoxy-N,4-dimethyl-4,5-dihydro-3H-2,3-benzodiazepine-3-carboxamide]: the negative logarithm of the IC50 (pIC50) on BRD4 (BD1) was 7.10; in the assay on MOLM-13 cells it was 6.32.

In general, pIC50 refers to −log10 of the IC50, conventionally taken in molar units. Read a high pIC50 as a low IC50.
